# Patent US12660819B2, “Herbicidal derivatives” (SYNGENTA CROP PROTECTION AG, priority 2020, dated 2026)
# Experiments:
# Type in all cases: in vivo
# [1] = system: Abutilon theophrasti (ABUTH); assay: Pre-emergence Test (glasshouse, percentage damage to the plant); conditions: 1000 g/ha unless otherwise stated; for percentage damage to the plant, ABUTH: five-point scale; for percentage damage to the plant, ABUTH (five-point scale): Abutilon theophrasti
# [2] = system: Amaranthus retoflexus (AMARE); assay: as above; conditions: 1000 g/ha unless otherwise stated; for percentage damage to the plant, AMARE: five-point scale; for percentage damage to the plant, AMARE (five-point scale): Amaranthus retoflexus
# [3] = system: Amaranthus retoflexus (AMARE); assay: Post-emergence Test (glasshouse, percentage damage to the plant); conditions: 1000 g/ha unless otherwise stated, evaluated after 13 days; for Post-emergence Test AMARE, percentage damage to the plant (five-point scale): post-emergence spray; for AMARE, percentage damage caused to the plant (five-point scale): post-emergence
# Procedure: (§1) Seeds of a variety of test species are sown in standard soil in pots (Amaranthus retoflexus (AMARE), Solanum nigrum (SOLNI), Setaria faberi (SETFA), Lolium perenne (LOLPE), Echinochloa crus-galli (ECHCG), Ipomoea hederacea (IPOHE), Abutilon theophrasti (ABUTH), Zea mays (ZEAMX), Amaranthus palmeri (AMAPA). After 8 days cultivation under controlled conditions in a glasshouse (at 24° C./16° C., day/night; 14 hours light; 65% humidity), the plants are sprayed with an aqueous spray solution derived from the formulation of the technical active ingredient in acetone/water (50:50) solution containing 0.5% Tween 20 (polyoxyethelyene sorbitan monolaurate, CAS RN 9005-64-5). Compounds are applied at 1000 g/ha unless otherwise stated. The test plants are then grown in a glasshouse under controlled conditions in a glasshouse (at 24° C./16° C., day/night; 14 hours light; 65% humidity) and watered twice daily. After 13 days the test is evaluated for the percentage damage caused to the plant. The biological activities are shown in the following table on a five-point scale (5=81-100%; 4=61-80%; 3=41-60%; 2=21-40%; 1=0-20%).
# [4] = system: Setaria faberi (SETFA); assay: as above; conditions: 1000 g/ha unless otherwise stated, evaluated after 13 days; for Post-emergence Test SETFA, percentage damage to the plant (five-point scale): post-emergence spray; for SETFA, percentage damage caused to the plant (five-point scale): post-emergence
# Procedure: as §1
# [5] = system: Echinochloa crus-galli (ECHCG); assay: as above; conditions: 1000 g/ha unless otherwise stated, evaluated after 13 days; for Post-emergence Test ECHCG, percentage damage to the plant (five-point scale): post-emergence spray; for ECHCG, percentage damage caused to the plant (five-point scale): post-emergence
# Procedure: as §1
# [6] = system: Zea mays (ZEAMX); assay: as above; conditions: 1000 g/ha unless otherwise stated, evaluated after 13 days; for Post-emergence Test ZEAMX, percentage damage to the plant (five-point scale): post-emergence spray; for ZEAMX, percentage damage caused to the plant (five-point scale): post-emergence
# Procedure: as §1
# [7] = system: Ipomoea hederacea (IPOHE); assay: as above; conditions: 1000 g/ha unless otherwise stated, evaluated after 13 days; for Post-emergence Test IPOHE, percentage damage to the plant (five-point scale): post-emergence spray; for IPOHE, percentage damage caused to the plant (five-point scale): post-emergence
# Procedure: as §1
# [8] = system: Zea mays (ZEAMX); assay: Pre-emergence Test (glasshouse, percentage damage to the plant); conditions: 1000 g/ha unless otherwise stated; for percentage damage to the plant, ZEAMX: five-point scale; for percentage damage to the plant, ZEAMX (five-point scale): Zea mays
# [9] = system: Echinochloa crus-galli (ECHCG); assay: as above; conditions: 1000 g/ha unless otherwise stated; for percentage damage to the plant, ECHCG: five-point scale; for percentage damage to the plant, ECHCG (five-point scale): Echinochloa crus-galli
# [10] = system: Ipomoea hederacea (IPOHE); assay: as above; conditions: 1000 g/ha unless otherwise stated; for percentage damage to the plant, IPOHE: five-point scale; for percentage damage to the plant, IPOHE (five-point scale): Ipomoea hederacea
# [11] = system: Setaria faberi (SETFA); assay: as above; conditions: 1000 g/ha unless otherwise stated; for percentage damage to the plant, SETFA: five-point scale; for percentage damage to the plant, SETFA (five-point scale): Setaria faberi
Structure (SMILES),"percentage damage to the plant, ABUTH [1]","percentage damage to the plant, AMARE [2]","Post-emergence Test AMARE, percentage damage to the plant (five-point scale) [3]","Post-emergence Test SETFA, percentage damage to the plant (five-point scale) [4]","Post-emergence Test ECHCG, percentage damage to the plant (five-point scale) [5]","Post-emergence Test ZEAMX, percentage damage to the plant (five-point scale) [6]","Post-emergence Test IPOHE, percentage damage to the plant (five-point scale) [7]","percentage damage to the plant, ZEAMX [8]","percentage damage to the plant, ECHCG [9]","percentage damage to the plant, IPOHE [10]","percentage damage to the plant, SETFA [11]",further results
"CCn1c(C)c(-c2cc(C)c(F)c(C)c2)c(=O)c(C(=O)O)c1-c1ccc(Cl)cc1 [Compound 173, 2-(4-chlorophenyl)-1-ethyl-5-(4-fluoro-3,5-dimethyl-phenyl)-6-methyl-4-oxo-pyridine-3-carboxylic acid]",0,0,3 (3=41-60%),2 (2=21-40%),1 (1=0-20%),2 (2=21-40%),3 (3=41-60%),0,0,0,0,
"CCn1c(C)c(-c2ccc(F)c(C#N)c2)c(=O)c(C(=O)O)c1-c1ccc(Cl)cc1 [Compound 174, 2-(4-chlorophenyl)-5-(3-cyano-4-fluoro-phenyl)-1-ethyl-6-methyl-4-oxo-pyridine-3-carboxylic acid]",1 (1=0-20%),1 (1=0-20%),2 (2=21-40%),3 (3=41-60%),2 (2=21-40%),1 (1=0-20%),4 (4=61-80%),1 (1=0-20%),3 (3=41-60%),1 (1=0-20%),2 (2=21-40%),
"CCn1c(C)c(-c2cc(F)ccc2Cl)c(=O)c(C(=O)O)c1-c1ccc(Cl)cc1 [Compound 175, 5-(2-chloro-5-fluoro-phenyl)-2-(4-chlorophenyl)-1-ethyl-6-methyl-4-oxo-pyridine-3-carboxylic acid]",0,0,1 (1=0-20%),3 (3=41-60%),2 (2=21-40%),1 (1=0-20%),3 (3=41-60%),1 (1=0-20%),1 (1=0-20%),3 (3=41-60%),2 (2=21-40%),
"CCOc1cc(-c2c(C)n(CC)c(-c3ccc(Cl)cc3)c(C(=O)O)c2=O)ccc1C(F)(F)F [Compound 176, 2-(4-chlorophenyl)-5-[3-ethoxy-4-(trifluoromethyl)phenyl]-1-ethyl-6-methyl-4-oxo-pyridine-3-carboxylic acid]",0,0,2 (2=21-40%),1 (1=0-20%),1 (1=0-20%),1 (1=0-20%),1 (1=0-20%),0,,0,0,
"CCn1c(C)c(-c2cc(Cl)c(F)c(Cl)c2)c(=O)c(C(=O)O)c1-c1ccc(Cl)cc1 [Compound 178, 2-(4-chlorophenyl)-5-(3,5-dichloro-4-fluoro-phenyl)-1-ethyl-6-methyl-4-oxo-pyridine-3-carboxylic acid]",0,0,1 (1=0-20%),0,1 (1=0-20%),1 (1=0-20%),1 (1=0-20%),0,0,0,0,
"CCn1c(C)c(-c2cccc(OC)c2F)c(=O)c(C(=O)O)c1-c1ccc(Cl)cc1 [Compound 179, 2-(4-chlorophenyl)-1-ethyl-5-(2-fluoro-3-methoxy-phenyl)-6-methyl-4-oxo-pyridine-3-carboxylic acid]",3 (3=41-60%),1 (1=0-20%),2 (2=21-40%),3 (3=41-60%),2 (2=21-40%),1 (1=0-20%),3 (3=41-60%),0,1 (1=0-20%),3 (3=41-60%),1 (1=0-20%),
"CCn1c(C)c(-c2ccc(C#N)cc2)c(=O)c(C(=O)O)c1-c1ccc(Cl)cc1 [Compound 198, 2-(4-chlorophenyl)-5-(4-cyanophenyl)-1-ethyl-6-methyl-4-oxo-pyridine-3-carboxylic acid]",,,,,,,,,,,,"percentage damage to the plant, ABUTH (five-point scale) [1]: 0; percentage damage to the plant, AMARE (five-point scale) [2]: 0; AMARE, percentage damage caused to the plant (five-point scale) [3]: 2 (2=21-40%); SETFA, percentage damage caused to the plant (five-point scale) [4]: 2 (2=21-40%); ECHCG, percentage damage caused to the plant (five-point scale) [5]: 1 (1=0-20%); ZEAMX, percentage damage caused to the plant (five-point scale) [6]: 1 (1=0-20%); IPOHE, percentage damage caused to the plant (five-point scale) [7]: 1 (1=0-20%); percentage damage to the plant, ZEAMX (five-point scale) [8]: 0; percentage damage to the plant, ECHCG (five-point scale) [9]: 0; percentage damage to the plant, IPOHE (five-point scale) [10]: 1 (1=0-20%); percentage damage to the plant, SETFA (five-point scale) [11]: 0"
"CCn1c(C)c(-c2cccc(C(F)(F)F)n2)c(=O)c(C(=O)O)c1-c1ccc(Cl)c(Cl)c1 [Compound 217, 2-(3,4-dichlorophenyl)-1-ethyl-6-methyl-4-oxo-5-[6-(trifluoromethyl)-2-pyridyl]pyridine-3-carboxylic acid]",,,,,,,,,,,,"percentage damage to the plant, ABUTH (five-point scale) [1]: 3 (3=41-60%); percentage damage to the plant, AMARE (five-point scale) [2]: 0; AMARE, percentage damage caused to the plant (five-point scale) [3]: 0; SETFA, percentage damage caused to the plant (five-point scale) [4]: 2 (2=21-40%); ECHCG, percentage damage caused to the plant (five-point scale) [5]: 1 (1=0-20%); ZEAMX, percentage damage caused to the plant (five-point scale) [6]: 0; IPOHE, percentage damage caused to the plant (five-point scale) [7]: 3 (3=41-60%); percentage damage to the plant, ZEAMX (five-point scale) [8]: 1 (1=0-20%); percentage damage to the plant, ECHCG (five-point scale) [9]: 1 (1=0-20%); percentage damage to the plant, IPOHE (five-point scale) [10]: 3 (3=41-60%); percentage damage to the plant, SETFA (five-point scale) [11]: 2 (2=21-40%)"
